# Test results reported in PubChem BioAssay (NCI).
# “And” between values parts separate entries of the source, which are not always exact repeats. Equal entries are not always repeated.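 How tested: cells in 96-well plates exposed to compound for 48 hours at five concentrations. Here, GI50 denotes the concentration required for 50% inhibition of growth. TGI marks complete inhibition of growth.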
# Legend:
# Assay in all cases: NCI anticancer screen, dose series, 48 h
# T-47D breast = test system: T-47D breast
# MCF7 breast = test system: MCF7 breast
# OVCAR-4 ovarian = test system: OVCAR-4 ovarian
# ACHN renal = test system: ACHN renal
# SF-539 CNS = test system: SF-539 CNS
# HS 578T breast = test system: HS 578T breast
# HCT-15 colon = test system: HCT-15 colon
# CAKI-1 renal = test system: CAKI-1 renal
# SK-MEL-28 melanoma = test system: SK-MEL-28 melanoma
# LOX IMVI melanoma = test system: LOX IMVI melanoma
# SF-295 CNS = test system: SF-295 CNS
# KM12 colon = test system: KM12 colon
# NCI-H460 lung = test system: NCI-H460 lung
# UO-31 renal = test system: UO-31 renal
# EKVX NSCLC = test system: EKVX NSCLC
# HL-60(TB) leukemia = test system: HL-60(TB) leukemia
# OVCAR-3 ovarian = test system: OVCAR-3 ovarian
# MDA-MB-231 breast = test system: MDA-MB-231 breast
# OVCAR-8 ovarian = test system: OVCAR-8 ovarian
# NCI/ADR-RES ovarian = test system: NCI/ADR-RES ovarian
# COLO 205 colon = test system: COLO 205 colon
# HCC-2998 colon = test system: HCC-2998 colon
# NCI-H23 lung = test system: NCI-H23 lung
# A549 NSCLC = test system: A549 NSCLC
# U251 CNS = test system: U251 CNS
# SK-OV-3 ovarian = test system: SK-OV-3 ovarian
# MALME-3M melanoma = test system: MALME-3M melanoma
# HT29 colon = test system: HT29 colon
# SN12C renal = test system: SN12C renal
# HCT-116 colon = test system: HCT-116 colon
# SNB-75 CNS = test system: SNB-75 CNS
# MDA-MB-435 = test system: MDA-MB-435
# SF-268 CNS = test system: SF-268 CNS
# OVCAR-5 ovarian = test system: OVCAR-5 ovarian
# HOP-62 NSCLC = test system: HOP-62 NSCLC
# SK-MEL-5 melanoma = test system: SK-MEL-5 melanoma
# UACC-257 melanoma = test system: UACC-257 melanoma
# IGROV1 ovarian = test system: IGROV1 ovarian
# K-562 leukemia = test system: K-562 leukemia
# SW-620 colon = test system: SW-620 colon
# 786-0 renal = test system: 786-0 renal
# CCRF-CEM leukemia = test system: CCRF-CEM leukemia
# SK-MEL-2 melanoma = test system: SK-MEL-2 melanoma
# RXF 393 renal = test system: RXF 393 renal
# M14 melanoma = test system: M14 melanoma
# SNB-19 CNS = test system: SNB-19 CNS
# SR leukemia = test system: SR leukemia
# DU-145 prostate = test system: DU-145 prostate
# MOLT-4 leukemia = test system: MOLT-4 leukemia
# BT-549 breast = test system: BT-549 breast
# NCI-H522 lung = test system: NCI-H522 lung
# HOP-92 NSCLC = test system: HOP-92 NSCLC
# A498 renal = test system: A498 renal
# RPMI-8226 leukemia = test system: RPMI-8226 leukemia
# NCI-H226 lung = test system: NCI-H226 lung
# PC-3 prostate = test system: PC-3 prostate
# TK-10 renal = test system: TK-10 renal
# UACC-62 melanoma = test system: UACC-62 melanoma
# MDA-N = test system: MDA-N
smiles,measurement,setting,value
Cc1ccc(C2=Nc3c(N)nc(N)nc3NC(c3ccccc3)C2)cc1 (configuration not stated),TGI,T-47D breast,28.2 µM and 32.6 µM
same,TGI,MCF7 breast,22.5 µM and 21.5 µM
same,TGI,OVCAR-4 ovarian,27.6 µM and 29.9 µM
same,TGI,ACHN renal,28.8 µM and 32 µM
same,TGI,SF-539 CNS,25.3 µM
same,TGI,HS 578T breast,33.9 µM and 41.1 µM
same,TGI,HCT-15 colon,15.9 µM and 12 µM
same,TGI,CAKI-1 renal,24.7 µM and 29.5 µM
same,TGI,SK-MEL-28 melanoma,24.8 µM and 35.3 µM
same,TGI,LOX IMVI melanoma,23 µM and 28 µM
same,GI50,SF-295 CNS,4.9 µM and 10.5 µM
same,TGI,SF-295 CNS,17.9 µM and 23.8 µM
same,GI50,KM12 colon,3.97 µM and 18 µM
same,TGI,KM12 colon,13.8 µM and 33.7 µM
same,TGI,NCI-H460 lung,28.3 µM
same,TGI,UO-31 renal,25.2 µM and 25.6 µM
same,TGI,EKVX NSCLC,27.2 µM and 28.2 µM
same,TGI,HL-60(TB) leukemia,20.3 µM
same,TGI,OVCAR-3 ovarian,24.8 µM and 24.9 µM
same,TGI,MDA-MB-231 breast,19.7 µM and 28.9 µM
same,TGI,OVCAR-8 ovarian,29.3 µM and 28.8 µM
same,TGI,NCI/ADR-RES ovarian,16.1 µM and 18.2 µM
same,GI50,COLO 205 colon,5.21 µM and 11.4 µM
same,TGI,COLO 205 colon,14 µM and 25.3 µM
same,TGI,HCC-2998 colon,19.3 µM and 18.7 µM
same,TGI,NCI-H23 lung,24.1 µM and 25.6 µM
same,TGI,A549 NSCLC,26.3 µM and 23.6 µM
same,TGI,U251 CNS,24.6 µM and 26.4 µM
same,TGI,SK-OV-3 ovarian,27.1 µM and 27.6 µM
same,TGI,MALME-3M melanoma,23.6 µM and 24.5 µM
same,TGI,HT29 colon,14.1 µM and 14.8 µM
same,TGI,SN12C renal,23.7 µM and 32 µM
same,TGI,HCT-116 colon,17.5 µM and 17.6 µM
same,TGI,SNB-75 CNS,29.8 µM and 27.4 µM
same,TGI,MDA-MB-435,7.25 µM and 6.01 µM
same,TGI,SF-268 CNS,29.9 µM and 31.8 µM
same,TGI,OVCAR-5 ovarian,30.5 µM and 33.5 µM
same,TGI,HOP-62 NSCLC,25.5 µM and 22.3 µM
same,TGI,SK-MEL-5 melanoma,34.4 µM
same,TGI,UACC-257 melanoma,24.6 µM and 32.4 µM
same,TGI,IGROV1 ovarian,21.2 µM and 21.6 µM
same,TGI,K-562 leukemia,> 100 µM
same,TGI,SW-620 colon,15.2 µM and 16.2 µM
same,TGI,786-0 renal,24.3 µM and 31.1 µM
same,TGI,CCRF-CEM leukemia,48.5 µM and 96.9 µM
same,GI50,SK-MEL-2 melanoma,9.71 µM and 4.19 µM
same,TGI,SK-MEL-2 melanoma,22 µM and 17.9 µM
same,TGI,RXF 393 renal,25.2 µM and 21.3 µM
same,TGI,M14 melanoma,20.8 µM and 21.8 µM
same,TGI,SNB-19 CNS,27 µM and 32.9 µM
same,TGI,SR leukemia,> 100 µM
same,TGI,DU-145 prostate,28.3 µM and 29.3 µM
same,TGI,MOLT-4 leukemia,28.3 µM and 97.6 µM
same,TGI,BT-549 breast,22 µM and 23.6 µM
same,TGI,NCI-H522 lung,16 µM and 30.9 µM
same,TGI,HOP-92 NSCLC,24.3 µM and 24.9 µM
same,TGI,A498 renal,23.6 µM
same,TGI,RPMI-8226 leukemia,> 100 µM
same,TGI,NCI-H226 lung,29.3 µM and 36.7 µM
same,TGI,PC-3 prostate,22.9 µM and 24 µM
same,TGI,TK-10 renal,27.6 µM and 40.2 µM
same,TGI,UACC-62 melanoma,22.7 µM and 26 µM
same,TGI,MDA-N,5.64 µM and 5.72 µM
CN1C[C@@H]2CCCN2P1Oc1cccc2cccnc12 (some centres not stated),TGI,T-47D breast,> 100 µM
same,TGI,MCF7 breast,65.4 µM
same,TGI,OVCAR-4 ovarian,> 100 µM
same,TGI,ACHN renal,> 100 µM
same,TGI,SF-539 CNS,> 100 µM
same,TGI,HS 578T breast,68.1 µM
same,TGI,HCT-15 colon,> 100 µM
same,TGI,CAKI-1 renal,> 100 µM
same,TGI,SK-MEL-28 melanoma,> 100 µM
same,TGI,LOX IMVI melanoma,> 100 µM
same,TGI,SF-295 CNS,> 100 µM
same,TGI,KM12 colon,> 100 µM
same,TGI,NCI-H460 lung,> 100 µM
same,TGI,UO-31 renal,> 100 µM
same,TGI,EKVX NSCLC,90.6 µM
same,TGI,HL-60(TB) leukemia,72.9 µM
same,TGI,OVCAR-3 ovarian,90.2 µM
same,TGI,MDA-MB-231 breast,> 100 µM
same,TGI,OVCAR-8 ovarian,> 100 µM
same,TGI,NCI/ADR-RES ovarian,62.3 µM
same,TGI,COLO 205 colon,> 100 µM
same,TGI,HCC-2998 colon,> 100 µM
same,TGI,NCI-H23 lung,57.7 µM
same,TGI,A549 NSCLC,> 100 µM
same,TGI,U251 CNS,> 100 µM
same,TGI,SK-OV-3 ovarian,> 100 µM
same,TGI,MALME-3M melanoma,> 100 µM
same,TGI,HT29 colon,> 100 µM
same,TGI,SN12C renal,> 100 µM
same,TGI,HCT-116 colon,89 µM
same,TGI,SNB-75 CNS,> 100 µM
same,TGI,MDA-MB-435,> 100 µM
same,TGI,SF-268 CNS,69.7 µM
same,TGI,OVCAR-5 ovarian,> 100 µM
same,TGI,HOP-62 NSCLC,> 100 µM
same,TGI,SK-MEL-5 melanoma,> 100 µM
same,TGI,UACC-257 melanoma,> 100 µM
same,TGI,IGROV1 ovarian,> 100 µM
same,TGI,K-562 leukemia,> 100 µM
same,TGI,SW-620 colon,> 100 µM
same,TGI,786-0 renal,> 100 µM
same,TGI,CCRF-CEM leukemia,19.3 µM
same,TGI,SK-MEL-2 melanoma,> 100 µM
same,TGI,RXF 393 renal,> 100 µM
same,TGI,M14 melanoma,> 100 µM
same,TGI,SNB-19 CNS,> 100 µM
same,TGI,SR leukemia,> 100 µM
same,TGI,DU-145 prostate,> 100 µM
same,TGI,MOLT-4 leukemia,58.1 µM
same,TGI,BT-549 breast,> 100 µM
same,TGI,NCI-H522 lung,> 100 µM
same,TGI,HOP-92 NSCLC,> 100 µM
same,TGI,A498 renal,> 100 µM
same,TGI,RPMI-8226 leukemia,66.2 µM
same,TGI,NCI-H226 lung,> 100 µM
same,TGI,PC-3 prostate,> 100 µM
same,TGI,TK-10 renal,> 100 µM
same,TGI,UACC-62 melanoma,> 100 µM
same,TGI,MDA-N,> 100 µM
Oc1ccc2ccccc2c1N=Nc1ccccc1,GI50,T-47D breast,22.5 µM and > 100 µM
same,TGI,T-47D breast,> 100 µM
same,TGI,MCF7 breast,> 100 µM
same,TGI,OVCAR-4 ovarian,> 100 µM
same,TGI,ACHN renal,> 100 µM
same,TGI,SF-539 CNS,> 100 µM
same,TGI,HS 578T breast,> 100 µM
same,TGI,HCT-15 colon,> 100 µM
same,TGI,CAKI-1 renal,> 100 µM
same,TGI,SK-MEL-28 melanoma,> 100 µM
same,TGI,LOX IMVI melanoma,> 100 µM
same,GI50,SF-295 CNS,39.6 µM and > 90.3 µM
same,TGI,SF-295 CNS,> 100 µM
same,GI50,KM12 colon,4.95 µM and 32.4 µM
same,TGI,KM12 colon,> 100 µM
same,TGI,NCI-H460 lung,> 100 µM
same,TGI,UO-31 renal,> 100 µM
same,GI50,EKVX NSCLC,15.5 µM and > 62.4 µM
same,TGI,EKVX NSCLC,> 100 µM
same,TGI,HL-60(TB) leukemia,> 100 µM
same,TGI,OVCAR-3 ovarian,> 100 µM
same,TGI,MDA-MB-231 breast,> 100 µM
same,TGI,OVCAR-8 ovarian,> 100 µM
same,TGI,NCI/ADR-RES ovarian,> 100 µM
same,TGI,COLO 205 colon,> 100 µM
same,TGI,HCC-2998 colon,> 100 µM
same,TGI,NCI-H23 lung,> 100 µM
same,TGI,A549 NSCLC,> 100 µM
same,TGI,U251 CNS,> 100 µM
same,TGI,SK-OV-3 ovarian,> 100 µM
same,TGI,MALME-3M melanoma,> 100 µM
same,TGI,HT29 colon,> 100 µM
same,TGI,SN12C renal,> 100 µM
same,TGI,HCT-116 colon,> 100 µM
same,TGI,SNB-75 CNS,> 100 µM
same,TGI,MDA-MB-435,> 100 µM
same,GI50,SF-268 CNS,25 µM and > 63.8 µM
same,TGI,SF-268 CNS,> 100 µM
same,TGI,OVCAR-5 ovarian,> 100 µM
same,TGI,HOP-62 NSCLC,> 100 µM
same,TGI,SK-MEL-5 melanoma,> 100 µM
same,TGI,UACC-257 melanoma,> 100 µM
same,TGI,IGROV1 ovarian,> 100 µM
same,TGI,K-562 leukemia,> 100 µM
same,TGI,SW-620 colon,> 100 µM
same,GI50,786-0 renal,35.4 µM and > 100 µM
same,TGI,786-0 renal,> 100 µM
same,TGI,CCRF-CEM leukemia,> 100 µM
same,TGI,SK-MEL-2 melanoma,> 100 µM
same,TGI,RXF 393 renal,> 100 µM
same,TGI,M14 melanoma,> 100 µM
same,TGI,SNB-19 CNS,> 100 µM
same,TGI,SR leukemia,> 100 µM
same,TGI,DU-145 prostate,> 100 µM
same,TGI,MOLT-4 leukemia,> 100 µM
same,TGI,BT-549 breast,> 100 µM
same,TGI,NCI-H522 lung,> 100 µM
same,TGI,HOP-92 NSCLC,> 100 µM
same,TGI,A498 renal,> 100 µM
same,TGI,RPMI-8226 leukemia,> 100 µM
same,TGI,NCI-H226 lung,> 100 µM
same,TGI,PC-3 prostate,> 100 µM
same,TGI,TK-10 renal,> 100 µM
same,TGI,UACC-62 melanoma,> 100 µM
same,TGI,MDA-N,> 100 µM
